In ChEMBL document CHEMBL1147417, “Synthesis of new thiophene and benzo[b]thiophene hydrazide derivatives as human NPY Y(5) antagonists” (Bioorg Med Chem Lett, 2004):

Columns and labels:
[1] = target: T1, Neuropeptide Y receptor type 1 (Homo sapiens, UniProt P25929); assay: Human Neuropeptide Y1 receptor binding affinity
T1 sequence (P25929 whole entry): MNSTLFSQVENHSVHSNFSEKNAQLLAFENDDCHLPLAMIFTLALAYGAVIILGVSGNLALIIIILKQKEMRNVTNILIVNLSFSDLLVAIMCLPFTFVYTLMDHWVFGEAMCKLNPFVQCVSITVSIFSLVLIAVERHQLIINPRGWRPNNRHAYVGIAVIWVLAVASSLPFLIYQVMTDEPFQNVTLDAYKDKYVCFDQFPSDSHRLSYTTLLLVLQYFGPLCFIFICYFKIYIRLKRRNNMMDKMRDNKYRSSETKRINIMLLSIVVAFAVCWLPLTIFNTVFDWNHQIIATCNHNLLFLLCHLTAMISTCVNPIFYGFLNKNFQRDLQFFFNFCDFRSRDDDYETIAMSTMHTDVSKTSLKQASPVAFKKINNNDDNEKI

[2] = target: T2, Neuropeptide Y receptor type 5 (Homo sapiens, UniProt Q15761); assay: Human Neuropeptide Y5 receptor binding affinity
T2 sequence (Q15761 whole entry): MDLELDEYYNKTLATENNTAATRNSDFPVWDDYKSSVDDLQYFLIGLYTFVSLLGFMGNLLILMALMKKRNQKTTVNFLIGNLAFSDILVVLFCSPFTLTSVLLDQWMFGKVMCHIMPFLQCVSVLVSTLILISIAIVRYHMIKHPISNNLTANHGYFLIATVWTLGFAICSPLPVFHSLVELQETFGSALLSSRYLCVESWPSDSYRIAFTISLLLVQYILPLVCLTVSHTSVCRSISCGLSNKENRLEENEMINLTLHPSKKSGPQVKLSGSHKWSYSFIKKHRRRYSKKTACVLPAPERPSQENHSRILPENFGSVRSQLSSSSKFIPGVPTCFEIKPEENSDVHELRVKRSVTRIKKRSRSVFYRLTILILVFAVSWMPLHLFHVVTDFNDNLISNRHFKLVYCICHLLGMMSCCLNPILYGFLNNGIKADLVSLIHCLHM

IC50 [1] [nM]	IC50 [2] [nM]	SMILES
> 10000	7.7	O=C(NNC(=O)[C@H]1CC[C@H](CNS(=O)(=O)c2ccc(Br)cc2)CC1)c1cccs1
> 10000	28.4	O=C(NNC(=O)[C@H]1CC[C@H](CNS(=O)(=O)c2ccc(Br)cc2)CC1)c1cc2ccccc2s1
> 10000	47.7	CC(C)c1cc(C(C)C)c(S(=O)(=O)NC[C@H]2CC[C@H](C(=O)NNC(=O)c3cccs3)CC2)c(C(C)C)c1
> 10000	175	O=C(NNC(=O)[C@H]1CC[C@H](CNS(=O)(=O)c2ccccc2)CC1)c1cc2ccccc2s1
> 10000	20.4	Cc1ccc(S(=O)(=O)NC[C@H]2CC[C@H](C(=O)NNC(=O)c3cccs3)CC2)cc1
> 10000	142	CC(C)c1cc(C(C)C)c(S(=O)(=O)NC[C@H]2CC[C@H](C(=O)NNC(=O)c3cc4ccccc4s3)CC2)c(C(C)C)c1
> 10000	11.5	O=C(NNC(=O)[C@H]1CC[C@H](CNS(=O)(=O)c2cccs2)CC1)c1cc2ccccc2s1
> 10000	12.5	O=C(NNC(=O)[C@H]1CC[C@H](CNS(=O)(=O)c2cccs2)CC1)c1cccs1
> 10000	147	O=C(NNC(=O)[C@H]1CC[C@H](CNS(=O)(=O)c2cccc3cccnc23)CC1)c1cccs1
> 10000	42.9	Cc1ccc(S(=O)(=O)NC[C@H]2CC[C@H](C(=O)NNC(=O)c3cc4ccccc4s3)CC2)cc1
> 10000	92.2	O=C(NNC(=O)[C@H]1CC[C@H](CNS(=O)(=O)c2cccc3cccnc23)CC1)c1cc2ccccc2s1
> 10000	32.2	O=C(NNC(=O)[C@H]1CC[C@H](CNS(=O)(=O)c2ccccc2)CC1)c1cccs1
> 10000	48.4	O=C(NNC(=O)[C@H]1CC[C@H](CNS(=O)(=O)c2ccc(Cl)cc2)CC1)c1cccs1
> 10000	279	O=C(NNC(=O)[C@H]1CC[C@H](CNS(=O)(=O)c2ccc(Cl)cc2)CC1)c1cc2ccccc2s1
